Reference: patent US20230085307A1, “PYRIDAZINONE COMPOUND AND HERBICIDE” (NISSAN CHEMICAL CORPORATION, priority 2019, published 2023)

What was measured:
barnyard grass [1] = experiment: Test Example 5: herbicidal effect by foliage application, plastic box (Table 20, symbol H); type: in vivo, barnyard grass (Echinochloa crus-galli); conditions: foliage application
Outline: (§1)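 Plants were sown into sterilized diluvial soil under about 1.5 cm cover and kept in a greenhouse at 25° C. to 30° C. Fourteen days on, foliage received an even spray of the diluted emulsion. Herbicidal or crop effect was judged three weeks afterwards.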

windgrass = experiment: Test Example 5: herbicidal effect by foliage application, plastic box (Table 20, symbol L); type: in vivo, windgrass (Apera spica-venti); conditions: foliage application
Outline: as §1

blackgrass = experiment: Test Example 4: herbicidal effect by soil treatment (Table 19, symbol J); type: in vivo, blackgrass (Alopecurus myosuroides); conditions: for herbicidal effect on J: blackgrass: amount of applied herbicide 320 g/ha
Outline: (§2)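 Pre-emergence style soil spray: seeds under ~1.5 cm sterilized diluvial soil received a uniform coat of emulsion diluted to the predetermined herbicide amount. Greenhouse 25–30° C; readout at week three on previously defined criteria.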

redroot pigweed [2] = experiment: Test Example 5: herbicidal effect by foliage application, plastic box (Table 20, symbol N); type: in vivo, redroot pigweed (Amaranthus retroflexus); conditions: foliage application
Outline: as §1

chickweed = experiment: Test Example 5: herbicidal effect by foliage application, plastic box (Table 20, symbol P); type: in vivo, common chickweed (Stellaria media); conditions: foliage application
Outline: as §1

Japanese bulrush = experiment: Test Example 2: herbicidal activity, application during weed generation under submerged conditions (Table 17, symbol B); type: in vivo, Japanese bulrush (Schoenoplectus juncoides); conditions: AAH 320 g/ha; application during weed generation, submerged conditions
Outline: (§3)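 Wagner pot, alluvial soil, 4 cm flood; mixed sowing of all species; greenhouse 25° C.–30° C. Emulsifiable formulation, water-diluted to predetermined dose, applied to paddy water at 1–2 leaf stage. Effect rated at 3 wk using the earlier test's scoring criteria.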

oval-leafed pondweed = experiment: Test Example 2: herbicidal activity, application during weed generation under submerged conditions (Table 17, symbol C); type: in vivo, oval-leafed pondweed (Monochoria vaginalis); conditions: AAH 320 g/ha; application during weed generation, submerged conditions
Outline: as §3

wild oat = experiment: Test Example 4: herbicidal effect by soil treatment (Table 19, symbol I); type: in vivo, wild oat (Avena fatua); conditions: for herbicidal effect on I: wild oat: amount of applied herbicide 320 g/ha
Outline: as §2

southern crabgrass = experiment: Test Example 4: herbicidal effect by soil treatment (Table 19, symbol F); type: in vivo, southern crabgrass (Digitaria ciliaris); conditions: for herbicidal effect on F: southern crabgrass: amount of applied herbicide 320 g/ha
Outline: as §2

persian speedwell [3] = experiment: Test Example 4: herbicidal effect by soil treatment (Table 19, symbol R); type: in vivo, Persian speedwell (Veronica persica); conditions: for herbicidal effect on R: persian speedwell: amount of applied herbicide 320 g/ha
Outline: as §2

barnyard grass [4] = experiment: Test Example 4: herbicidal effect by soil treatment (Table 19, symbol H); type: in vivo, barnyard grass (Echinochloa crus-galli); conditions: for herbicidal effect on H: barnyard grass: amount of applied herbicide 320 g/ha
Outline: as §2

persian speedwell [5] = experiment: Test Example 5: herbicidal effect by foliage application, plastic box (Table 20, symbol R); type: in vivo, Persian speedwell (Veronica persica); conditions: foliage application
Outline: as §1

green foxtail = experiment: Test Example 4: herbicidal effect by soil treatment (Table 19, symbol G); type: in vivo, green foxtail (Setaria viridis); conditions: for herbicidal effect on G: green foxtail: amount of applied herbicide 320 g/ha
Outline: as §2

velvetleaf = experiment: Test Example 4: herbicidal effect by soil treatment (Table 19, symbol M); type: in vivo, velvetleaf (Abutilon theophrasti); conditions: for herbicidal effect on M: velvetleaf: amount of applied herbicide 320 g/ha
Outline: as §2

redroot pigweed [6] = experiment: Test Example 4: herbicidal effect by soil treatment (Table 19, symbol N); type: in vivo, redroot pigweed (Amaranthus retroflexus); conditions: for herbicidal effect on N: redroot pigweed: amount of applied herbicide 320 g/ha
Outline: as §2

late watergrass = experiment: Test Example 2: herbicidal activity, application during weed generation under submerged conditions (Table 17, symbol A); type: in vivo, late watergrass (Echinochloa oryzicola); conditions: AAH 320 g/ha; application during weed generation, submerged conditions
Outline: as §3

[7] = AAH 320 g/ha, three weeks after application
[8] = AAH 320 g/ha, evaluated three weeks after application
[9] = 320 g/ha, evaluated three weeks after application

Cc1nn(C)c(=O)c(-c2c(-c3ccc([N+](=O)[O-])cc3)sc3ccccc23)c1O [1-151]
H: barnyard grass, herbicidal effect (barnyard grass [1]; [7]): 3 (Herbicidal rate of 40% or more and less than 70%) | L: windgrass, herbicidal effect (windgrass; [7]): 0 (Herbicidal rate of 5% or less (almost no effect)) | J: blackgrass, herbicidal effect rating (blackgrass; AAH 320 g/ha): 0 (Herbicidal rate of 5% or less (almost no effect)) | N: redroot pigweed, herbicidal effect (redroot pigweed [2]; [7]): 5 (Herbicidal rate of 90% or more (almost completely withered)) | P: chickweed, herbicidal effect (chickweed; [7]): 5 (Herbicidal rate of 90% or more (almost completely withered)) | herbicidal effect rating, B: Japanese bulrush (Japanese bulrush): 2 (Herbicidal rate of 20% or more and less than 40%) | herbicidal effect rating, C: oval-leafed pondweed (oval-leafed pondweed): 0 (Herbicidal rate of 5% or less (almost no effect)) | I: wild oat, herbicidal effect rating (wild oat; AAH 320 g/ha): 0 (Herbicidal rate of 5% or less (almost no effect)) | F: southern crabgrass, herbicidal effect rating (southern crabgrass; AAH 320 g/ha): 0 (Herbicidal rate of 5% or less (almost no effect)) | R: persian speedwell, herbicidal effect rating (persian speedwell [3]; AAH 320 g/ha): 5 (Herbicidal rate of 90% or more (almost completely withered)) | H: barnyard grass, herbicidal effect rating (barnyard grass [4]; AAH 320 g/ha): 0 (Herbicidal rate of 5% or less (almost no effect)) | R: persian speedwell, herbicidal effect (persian speedwell [5]; [7]): 5 (Herbicidal rate of 90% or more (almost completely withered)) | G: green foxtail, herbicidal effect rating (green foxtail; AAH 320 g/ha): 0 (Herbicidal rate of 5% or less (almost no effect)) | M: velvetleaf, herbicidal effect rating (velvetleaf; AAH 320 g/ha): 0 (Herbicidal rate of 5% or less (almost no effect)) | N: redroot pigweed, herbicidal effect rating (redroot pigweed [6]; AAH 320 g/ha): 3 (Herbicidal rate of 40% or more and less than 70%) | herbicidal effect rating, A: late watergrass (late watergrass): 0 (Herbicidal rate of 5% or less (almost no effect))

COCCOC(=O)Oc1c(C)nn(C)c(=O)c1-c1c(-c2ccc(OC(F)F)cc2)sc2ccc(F)cc12 [2-295]
H: barnyard grass, herbicidal effect (criteria 0-5) (barnyard grass [1]; [8]): 5 (Herbicidal rate of 90% or more (almost completely withered)) | L: windgrass, herbicidal effect (criteria 0-5) (windgrass; [8]): 5 (Herbicidal rate of 90% or more (almost completely withered)) | herbicidal effect on J: blackgrass (blackgrass): 4 (Herbicidal rate of 70% or more and less than 90%) | N: redroot pigweed, herbicidal effect (criteria 0-5) (redroot pigweed [2]; [8]): 5 (Herbicidal rate of 90% or more (almost completely withered)) | P: chickweed, herbicidal effect (criteria 0-5) (chickweed; [8]): 5 (Herbicidal rate of 90% or more (almost completely withered)) | herbicidal effect rating, B: Japanese bulrush (Japanese bulrush): 3 (Herbicidal rate of 40% or more and less than 70%) | herbicidal effect rating, C: oval-leafed pondweed (oval-leafed pondweed): 3 (Herbicidal rate of 40% or more and less than 70%) | herbicidal effect on I: wild oat (wild oat): 1 (Herbicidal rate of 5% or more and less than 20%) | herbicidal effect on F: southern crabgrass (southern crabgrass): 5 (Herbicidal rate of 90% or more (almost completely withered)) | herbicidal effect on R: persian speedwell (persian speedwell [3]): 5 (Herbicidal rate of 90% or more (almost completely withered)) | herbicidal effect on H: barnyard grass (barnyard grass [4]): 5 (Herbicidal rate of 90% or more (almost completely withered)) | R: persian speedwell, herbicidal effect (criteria 0-5) (persian speedwell [5]; [8]): 5 (Herbicidal rate of 90% or more (almost completely withered)) | herbicidal effect on G: green foxtail (green foxtail): 5 (Herbicidal rate of 90% or more (almost completely withered)) | herbicidal effect on M: velvetleaf (velvetleaf): 4 (Herbicidal rate of 70% or more and less than 90%) | herbicidal effect on N: redroot pigweed (redroot pigweed [6]): 5 (Herbicidal rate of 90% or more (almost completely withered)) | herbicidal effect rating, A: late watergrass (late watergrass): 5 (Herbicidal rate of 90% or more (almost completely withered))

Cc1nn(C)c(=O)c(-c2c(-c3ccc(SC(C)C)cc3)sc3ccc(F)cc23)c1O [2-252]
herbicidal effect on H: barnyard grass (criteria 0-5) (barnyard grass [1]; [9]): 5 (Herbicidal rate of 90% or more (almost completely withered)) | herbicidal effect on L: windgrass (criteria 0-5) (windgrass; [9]): 5 (Herbicidal rate of 90% or more (almost completely withered)) | herbicidal effect on J: blackgrass (blackgrass): 0 (Herbicidal rate of 5% or less (almost no effect)) | herbicidal effect on N: redroot pigweed (criteria 0-5) (redroot pigweed [2]; [9]): 5 (Herbicidal rate of 90% or more (almost completely withered)) | herbicidal effect on P: chickweed (criteria 0-5) (chickweed; [9]): 5 (Herbicidal rate of 90% or more (almost completely withered)) | herbicidal effect rating, B: Japanese bulrush (Japanese bulrush): 3 (Herbicidal rate of 40% or more and less than 70%) | herbicidal effect rating, C: oval-leafed pondweed (oval-leafed pondweed): 2 (Herbicidal rate of 20% or more and less than 40%) | herbicidal effect on I: wild oat (wild oat): 0 (Herbicidal rate of 5% or less (almost no effect)) | herbicidal effect on F: southern crabgrass (southern crabgrass): 2 (Herbicidal rate of 20% or more and less than 40%) | herbicidal effect on R: persian speedwell (persian speedwell [3]): 5 (Herbicidal rate of 90% or more (almost completely withered)) | herbicidal effect on H: barnyard grass (barnyard grass [4]): 3 (Herbicidal rate of 40% or more and less than 70%) | herbicidal effect on R: persian speedwell (criteria 0-5) (persian speedwell [5]; [9]): 5 (Herbicidal rate of 90% or more (almost completely withered)) | herbicidal effect on G: green foxtail (green foxtail): 1 (Herbicidal rate of 5% or more and less than 20%) | herbicidal effect on M: velvetleaf (velvetleaf): 2 (Herbicidal rate of 20% or more and less than 40%) | herbicidal effect on N: redroot pigweed (redroot pigweed [6]): 5 (Herbicidal rate of 90% or more (almost completely withered)) | herbicidal effect rating, A: late watergrass (late watergrass): 4 (Herbicidal rate of 70% or more and less than 90%)

COc1ccc(-c2sc3ccc(F)cc3c2-c2c(O)c(C)nn(C)c2=O)cc1OC [2-088]
herbicidal effect on H: barnyard grass (barnyard grass [1]; [9]): 3 (Herbicidal rate of 40% or more and less than 70%) | herbicidal effect on L: windgrass (windgrass; [9]): 0 (Herbicidal rate of 5% or less (almost no effect)) | herbicidal effect rating, J: blackgrass (blackgrass; 320 g/ha): 0 (Herbicidal rate of 5% or less (almost no effect)) | herbicidal effect on N: redroot pigweed (redroot pigweed [2]; [9]): 5 (Herbicidal rate of 90% or more (almost completely withered)) | herbicidal effect on P: chickweed (chickweed; [9]): 5 (Herbicidal rate of 90% or more (almost completely withered)) | herbicidal effect rating, B: Japanese bulrush (Japanese bulrush): 0 (Herbicidal rate of 5% or less (almost no effect)) | herbicidal effect rating, C: oval-leafed pondweed (oval-leafed pondweed): 2 (Herbicidal rate of 20% or more and less than 40%) | herbicidal effect rating, I: wild oat (wild oat; 320 g/ha): 0 (Herbicidal rate of 5% or less (almost no effect)) | herbicidal effect rating, F: southern crabgrass (southern crabgrass; 320 g/ha): 1 (Herbicidal rate of 5% or more and less than 20%) | herbicidal effect rating, R: persian speedwell (persian speedwell [3]; 320 g/ha): 3 (Herbicidal rate of 40% or more and less than 70%) | herbicidal effect rating, H: barnyard grass (barnyard grass [4]; 320 g/ha): 4 (Herbicidal rate of 70% or more and less than 90%) | herbicidal effect on R: persian speedwell (persian speedwell [5]; [9]): 5 (Herbicidal rate of 90% or more (almost completely withered)) | herbicidal effect rating, G: green foxtail (green foxtail; 320 g/ha): 3 (Herbicidal rate of 40% or more and less than 70%) | herbicidal effect rating, M: velvetleaf (velvetleaf; 320 g/ha): 2 (Herbicidal rate of 20% or more and less than 40%) | herbicidal effect rating, N: redroot pigweed (redroot pigweed [6]; 320 g/ha): 4 (Herbicidal rate of 70% or more and less than 90%) | herbicidal effect rating, A: late watergrass (late watergrass): 3 (Herbicidal rate of 40% or more and less than 70%)
